Reference: patent publication US20250312462A1, “PAK1 DEGRADERS AND METHODS OF USE THEREOF” (INSTITUTE FOR CANCER RESEARCH D/B/A THE RESEARCH INSTITUTE …, priority 2022, published 2025)

Columns and labels:
Test in all cases: KINOMEscan
Conditions in all cases: read-out: Percent Control
TYRO3 = TYRO3 (Homo sapiens, UniProt Q06418)
Experimental: (§1) The kinase engagement assay (KINOMEscan®) was performed by DiscoverX assessing binding abilities toward a set of kinases.

EGFR(L747-T751del, Sins) = EGFR(L747-T751del, Sins) (Homo sapiens, UniProt P00533, DEL747-750/T751S)
Experimental: as §1

RET(V804M) = RET(V804M) (Homo sapiens, UniProt P07949, V804M)
Experimental: as §1

FLT1 = FLT1 (Homo sapiens, UniProt P17948)
Experimental: as §1

MAK = MAK (Homo sapiens, UniProt P20794)
Experimental: as §1

[1] = target: RPS6KA5(Kin.Dom.2-C-terminal) (Homo sapiens, UniProt O75582)
Sequence of RPS6KA5(Kin.Dom.2-C-terminal) (O75582 426-687 limits assumed): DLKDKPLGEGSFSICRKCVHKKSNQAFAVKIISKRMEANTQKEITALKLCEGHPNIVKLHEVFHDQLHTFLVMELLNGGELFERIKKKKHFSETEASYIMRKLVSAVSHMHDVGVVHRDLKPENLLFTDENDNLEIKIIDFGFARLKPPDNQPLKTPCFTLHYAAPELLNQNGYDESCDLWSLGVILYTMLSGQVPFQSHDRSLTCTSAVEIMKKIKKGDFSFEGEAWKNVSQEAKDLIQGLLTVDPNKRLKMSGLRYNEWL
Experimental: as §1

FLT3(D835V) = FLT3(D835V) (Homo sapiens, UniProt P36888, D835V)
Experimental: as §1

EPHB1 = EPHB1 (Homo sapiens, UniProt P54762)
Experimental: as §1

PRKCQ = PRKCQ (Homo sapiens, UniProt Q04759)
Experimental: as §1

FLT3(K663Q) = FLT3(K663Q) (Homo sapiens, UniProt P36888, K663Q)
Experimental: as §1

PRKCH = PRKCH (Homo sapiens, UniProt P24723)
Sequence of PRKCH (P24723 whole entry): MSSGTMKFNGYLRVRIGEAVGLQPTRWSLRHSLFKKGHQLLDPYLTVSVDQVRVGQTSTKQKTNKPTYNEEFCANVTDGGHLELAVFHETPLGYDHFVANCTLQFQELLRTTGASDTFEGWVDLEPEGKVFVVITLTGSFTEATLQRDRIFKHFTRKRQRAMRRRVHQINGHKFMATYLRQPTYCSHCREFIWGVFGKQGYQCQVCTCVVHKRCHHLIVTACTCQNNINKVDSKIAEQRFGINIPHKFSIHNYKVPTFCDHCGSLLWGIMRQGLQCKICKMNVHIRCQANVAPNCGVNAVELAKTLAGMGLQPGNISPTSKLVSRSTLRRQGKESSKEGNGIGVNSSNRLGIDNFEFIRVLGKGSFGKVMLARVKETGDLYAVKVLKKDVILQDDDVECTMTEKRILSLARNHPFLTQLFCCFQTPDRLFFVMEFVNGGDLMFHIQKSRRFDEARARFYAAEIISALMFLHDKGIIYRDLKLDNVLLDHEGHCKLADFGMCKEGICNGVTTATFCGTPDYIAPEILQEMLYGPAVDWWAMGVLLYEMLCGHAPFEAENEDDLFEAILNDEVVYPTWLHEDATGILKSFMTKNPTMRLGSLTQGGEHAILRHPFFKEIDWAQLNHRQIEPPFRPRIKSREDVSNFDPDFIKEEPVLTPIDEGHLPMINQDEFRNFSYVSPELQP
Experimental: as §1

BRAF = BRAF (Homo sapiens, UniProt P15056)
Experimental: as §1

MLCK = MLCK (Homo sapiens, UniProt Q32MK0)
Sequence of MLCK (Q32MK0 whole entry): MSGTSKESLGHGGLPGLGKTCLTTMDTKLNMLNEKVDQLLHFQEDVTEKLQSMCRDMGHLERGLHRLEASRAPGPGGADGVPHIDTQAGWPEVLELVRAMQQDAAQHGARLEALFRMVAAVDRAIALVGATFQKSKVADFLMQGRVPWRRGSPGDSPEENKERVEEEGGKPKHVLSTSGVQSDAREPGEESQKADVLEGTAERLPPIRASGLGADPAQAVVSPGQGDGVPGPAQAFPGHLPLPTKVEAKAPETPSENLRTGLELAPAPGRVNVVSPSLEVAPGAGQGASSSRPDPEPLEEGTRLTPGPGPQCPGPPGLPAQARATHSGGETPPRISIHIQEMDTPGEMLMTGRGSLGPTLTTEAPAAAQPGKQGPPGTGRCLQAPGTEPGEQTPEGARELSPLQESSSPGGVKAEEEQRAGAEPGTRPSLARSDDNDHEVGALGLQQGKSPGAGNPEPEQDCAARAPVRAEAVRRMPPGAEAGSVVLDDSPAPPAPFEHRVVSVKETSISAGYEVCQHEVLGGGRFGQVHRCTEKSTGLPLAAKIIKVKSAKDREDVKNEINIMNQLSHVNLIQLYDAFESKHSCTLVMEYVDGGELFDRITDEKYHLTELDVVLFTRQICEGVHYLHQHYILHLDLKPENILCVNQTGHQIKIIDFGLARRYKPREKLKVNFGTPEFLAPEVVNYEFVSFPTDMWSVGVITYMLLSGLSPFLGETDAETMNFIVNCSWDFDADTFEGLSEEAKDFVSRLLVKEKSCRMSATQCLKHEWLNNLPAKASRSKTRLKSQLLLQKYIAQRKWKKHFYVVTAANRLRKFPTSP
Experimental: as §1

S6K1 = S6K1 (Homo sapiens, UniProt P23443)
Sequence of S6K1 (P23443 whole entry): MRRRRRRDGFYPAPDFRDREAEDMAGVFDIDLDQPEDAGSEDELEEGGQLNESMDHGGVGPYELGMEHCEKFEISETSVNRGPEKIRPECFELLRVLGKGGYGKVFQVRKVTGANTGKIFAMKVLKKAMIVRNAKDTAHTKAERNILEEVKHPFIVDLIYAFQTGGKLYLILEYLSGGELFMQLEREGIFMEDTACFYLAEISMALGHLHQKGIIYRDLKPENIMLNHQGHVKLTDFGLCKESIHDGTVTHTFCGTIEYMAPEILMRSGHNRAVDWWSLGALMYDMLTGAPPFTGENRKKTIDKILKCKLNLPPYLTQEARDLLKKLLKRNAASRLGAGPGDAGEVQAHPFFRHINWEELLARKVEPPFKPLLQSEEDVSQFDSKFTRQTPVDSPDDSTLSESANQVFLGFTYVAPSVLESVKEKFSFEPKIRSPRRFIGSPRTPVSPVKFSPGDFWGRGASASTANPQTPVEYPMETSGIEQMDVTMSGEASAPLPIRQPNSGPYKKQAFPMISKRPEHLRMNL
Experimental: as §1

ZAP70 = ZAP70 (Homo sapiens, UniProt P43403)
Sequence of ZAP70 (P43403 whole entry): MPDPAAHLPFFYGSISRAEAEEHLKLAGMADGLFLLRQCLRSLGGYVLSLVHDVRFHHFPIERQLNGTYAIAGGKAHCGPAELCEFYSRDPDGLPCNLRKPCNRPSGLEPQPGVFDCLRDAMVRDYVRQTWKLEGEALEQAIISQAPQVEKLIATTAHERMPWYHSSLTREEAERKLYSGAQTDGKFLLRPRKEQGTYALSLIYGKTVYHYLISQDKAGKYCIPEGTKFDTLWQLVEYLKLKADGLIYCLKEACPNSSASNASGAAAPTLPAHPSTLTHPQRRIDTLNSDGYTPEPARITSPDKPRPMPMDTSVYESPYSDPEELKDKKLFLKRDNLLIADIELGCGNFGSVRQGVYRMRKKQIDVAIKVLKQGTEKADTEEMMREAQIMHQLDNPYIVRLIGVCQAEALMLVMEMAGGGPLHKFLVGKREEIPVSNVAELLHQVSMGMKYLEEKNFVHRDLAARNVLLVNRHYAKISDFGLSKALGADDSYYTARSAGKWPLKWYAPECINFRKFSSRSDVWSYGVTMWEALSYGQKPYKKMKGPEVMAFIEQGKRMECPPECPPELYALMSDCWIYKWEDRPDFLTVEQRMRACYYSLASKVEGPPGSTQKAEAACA
Experimental: as §1

CSNK1D = CSNK1D (Homo sapiens, UniProt P48730)
Experimental: as §1

PAK1 = PAK1 (Homo sapiens, UniProt Q13153)
Experimental: as §1

BMX = BMX (Homo sapiens, UniProt P51813)
Experimental: as §1

[2] = target: RPS6KA5(Kin.Dom.1-N-terminal) (Homo sapiens, UniProt O75582)
Experimental: as §1

TGFBR2 = TGFBR2 (Homo sapiens, UniProt P37173)
Experimental: as §1

KIT(D816H) = KIT(D816H) (Homo sapiens, UniProt P10721, D816H)
Experimental: as §1

CDKL1 = CDKL1 (Homo sapiens, UniProt Q00532)
Sequence of CDKL1 (Q00532 whole entry): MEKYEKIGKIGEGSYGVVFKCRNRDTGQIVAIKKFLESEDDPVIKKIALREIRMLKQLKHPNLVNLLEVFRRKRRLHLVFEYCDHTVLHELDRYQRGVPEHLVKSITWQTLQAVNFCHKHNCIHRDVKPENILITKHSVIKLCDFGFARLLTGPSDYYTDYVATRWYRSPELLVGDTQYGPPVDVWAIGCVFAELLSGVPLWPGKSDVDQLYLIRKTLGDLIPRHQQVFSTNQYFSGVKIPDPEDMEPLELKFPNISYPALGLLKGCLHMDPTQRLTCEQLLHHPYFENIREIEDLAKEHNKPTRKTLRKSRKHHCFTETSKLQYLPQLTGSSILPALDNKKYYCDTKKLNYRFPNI
Experimental: as §1

MYLK = MYLK (Homo sapiens, UniProt Q15746)
Experimental: as §1

MLK1 = MLK1 (Homo sapiens, UniProt P80192)
Sequence of MLK1 (P80192 whole entry): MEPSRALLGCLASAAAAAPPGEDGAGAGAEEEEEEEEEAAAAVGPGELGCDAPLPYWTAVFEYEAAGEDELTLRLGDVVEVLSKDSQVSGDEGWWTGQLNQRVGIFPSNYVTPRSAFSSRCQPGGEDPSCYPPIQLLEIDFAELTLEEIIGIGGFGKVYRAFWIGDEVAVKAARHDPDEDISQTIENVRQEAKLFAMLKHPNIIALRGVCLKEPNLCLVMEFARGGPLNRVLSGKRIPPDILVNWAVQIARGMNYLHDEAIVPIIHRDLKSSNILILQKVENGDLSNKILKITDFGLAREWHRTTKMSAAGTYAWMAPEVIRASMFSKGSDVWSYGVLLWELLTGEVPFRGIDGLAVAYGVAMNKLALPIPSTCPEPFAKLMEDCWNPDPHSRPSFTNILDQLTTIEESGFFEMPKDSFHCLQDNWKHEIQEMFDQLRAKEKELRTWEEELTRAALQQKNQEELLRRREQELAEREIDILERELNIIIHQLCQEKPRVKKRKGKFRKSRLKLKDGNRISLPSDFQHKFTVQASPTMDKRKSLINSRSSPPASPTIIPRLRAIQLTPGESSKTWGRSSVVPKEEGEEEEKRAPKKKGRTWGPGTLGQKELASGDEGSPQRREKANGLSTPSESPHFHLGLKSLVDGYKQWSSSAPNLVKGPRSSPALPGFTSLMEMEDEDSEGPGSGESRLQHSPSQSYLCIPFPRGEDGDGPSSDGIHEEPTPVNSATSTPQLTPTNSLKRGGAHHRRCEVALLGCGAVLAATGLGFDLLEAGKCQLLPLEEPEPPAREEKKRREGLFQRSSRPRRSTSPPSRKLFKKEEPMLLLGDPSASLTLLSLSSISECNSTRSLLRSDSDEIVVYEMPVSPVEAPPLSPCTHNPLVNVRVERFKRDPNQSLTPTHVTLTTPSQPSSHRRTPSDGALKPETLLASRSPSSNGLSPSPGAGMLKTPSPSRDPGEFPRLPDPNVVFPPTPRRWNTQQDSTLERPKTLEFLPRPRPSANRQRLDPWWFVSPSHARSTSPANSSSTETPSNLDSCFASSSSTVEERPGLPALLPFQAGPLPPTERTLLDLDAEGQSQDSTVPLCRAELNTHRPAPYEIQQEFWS
Experimental: as §1

CAMK1D = CAMK1D (Homo sapiens, UniProt Q8IU85)
Experimental: as §1

WEE1 = WEE1 (Homo sapiens, UniProt P30291)
Experimental: as §1

KIT(D816V) = KIT(D816V) (Homo sapiens, UniProt P10721, D816V)
Experimental: as §1

FYN = FYN (Homo sapiens, UniProt P06241)
Sequence of FYN (P06241 whole entry): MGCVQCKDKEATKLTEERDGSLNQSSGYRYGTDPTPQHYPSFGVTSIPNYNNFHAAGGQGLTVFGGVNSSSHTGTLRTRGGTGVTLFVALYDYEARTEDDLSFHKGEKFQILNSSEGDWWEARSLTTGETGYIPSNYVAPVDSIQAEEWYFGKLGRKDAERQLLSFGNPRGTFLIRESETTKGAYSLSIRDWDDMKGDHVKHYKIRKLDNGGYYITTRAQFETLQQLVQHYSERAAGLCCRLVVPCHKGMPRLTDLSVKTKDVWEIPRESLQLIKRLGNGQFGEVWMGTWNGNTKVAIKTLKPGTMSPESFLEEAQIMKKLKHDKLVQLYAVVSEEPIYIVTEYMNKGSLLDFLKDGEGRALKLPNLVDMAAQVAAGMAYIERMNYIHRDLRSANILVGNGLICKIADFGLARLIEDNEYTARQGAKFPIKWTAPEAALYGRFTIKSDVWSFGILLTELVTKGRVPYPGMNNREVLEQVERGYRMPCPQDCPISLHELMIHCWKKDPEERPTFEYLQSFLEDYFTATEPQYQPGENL
Experimental: as §1

Structure (SMILES): O=C1CCC(N2C(=O)c3cccc(NCCCCCCCCNC(=O)N4CC[C@H](NC5=Nc6cc(F)ccc6N(CC(F)F)c6ccc(Cl)cc65)C4)c3C2=O)C(=O)N1 (stereo partly drawn) [BJG-05-039, (3S)-3-((2-Chloro-5-(2,2-difluoroethyl)-8-fluoro-5H-dibenzo[b,e][1,4]diazepin-11-yl)amino)-N-(8-((2-(2,6-dioxopiperidin-3-yl)-1,3-dioxoisoindolin-4-yl)amino)octyl)pyrrolidine-1-carboxamide]
- remaining binding at 10 µM (TYRO3): 72%
- remaining binding at 10 µM (EGFR(L747-T751del, Sins)): 80%
- remaining binding at 10 µM (RET(V804M)): 59%
- remaining binding at 10 µM (FLT1): 84%
- remaining binding at 10 µM (MAK): 98%
- remaining binding at 10 µM [1]: 42%
- remaining binding at 10 µM (FLT3(D835V)): 76%
- remaining binding at 10 µM (EPHB1): 98%
- remaining binding at 10 µM (PRKCQ): 77%
- remaining binding at 10 µM (FLT3(K663Q)): 59%
- remaining binding at 10 µM (PRKCH): 94%
- remaining binding at 10 µM (BRAF): 98%
- remaining binding at 10 µM (MLCK): 66%
- remaining binding at 10 µM (S6K1): 89%
- remaining binding at 10 µM (ZAP70): 100%
- remaining binding at 10 µM (CSNK1D): 60%
- remaining binding at 10 µM (PAK1): 20%
- remaining binding at 10 µM (BMX): 90%
- remaining binding at 10 µM [2]: 94%
- remaining binding at 10 µM (TGFBR2): 75%
- remaining binding at 10 µM (KIT(D816H)): 100%
- remaining binding at 10 µM (CDKL1): 99%
- remaining binding at 10 µM (MYLK): 100%
- remaining binding at 10 µM (MLK1): 83%
- remaining binding at 10 µM (CAMK1D): 68%
- remaining binding at 10 µM (WEE1): 42%
- remaining binding at 10 µM (KIT(D816V)): 87%
- remaining binding at 10 µM (FYN): 71%
